In article PMC6597546, “Identification of a potent benzoxaborole drug candidate for treating cryptosporidiosis” (Nature Communications, 2019):
Values joined by “and” are separate entries in the source; they are usually repeats but may differ in a detail not shown here. Equal entries are not always repeated.

Test system: C. parvum (Bunch Grass Farms Iowa isolate)
Assay: Neonatal calf model of cryptosporidiosis
Assay type: in vivo
Set-up: key to Oocyst Shedding, individual calves / Oocyst Shedding: C. parvum abundance per gram of fecal dry matter (qPCR); key to Fecal Consistency Score, individual calves / Fecal Consistency Score: score 1 = normal, 3 = severely abnormal
Method: All calf efficacy studies were performed as previously described. These studies were approved by the University of Vermont Institutional animal Care and Use Committee, and conducted in compliance with the USDA-APHIS “Blue Book”, available at www.aphis.usda.gov/animal-welfare. Holstein bull calves were acquired at birth from Green Mountain Dairy (Sheldon, VT), given synthetic colostrum with 200 g of IgG (Land O’Lakes, Ardent Hills, MO) and bovine coronavirus and Escherichia coli antibodies (First Defense Bolus, Immuncell Corporation, Portland, ME) within 2 h of birth, and transported to UVM. Calves were group-housed initially, and infected at 24–48 h of age during an interruption in bottle feeding by oral administration of ∼5 × 10^7 C. parvum Iowa isolate oocysts (Bunch Grass Farms, Deary, ID) suspended in 10 mL of water. They were then moved to individual raised pens, and observed twice daily at feeding times for clinical signs, which were quantified according to a previously described standardized scoring rubric. Data on fecal consistency, dehydration and overall health were collected, in each case with a score of 1 being normal and 3 being severely abnormal (scoring rubric in Supplementary Table 2). Clinical microbiologic studies for adventitious infectious agents including Salmonella culture, aerobic bacterial culture with E. coli genotyping, rotavirus, and coronavirus testing were performed on all calves at the onset of diarrhea by the Cornell Animal Health Diagnostic Center (Ithaca, NY). Animals with severe diarrhea or other symptoms were supported aggressively, including with administration of oral electrolytes, intravenous fluids and flunixin meglumine (Banamine, Merck) as needed. […] Daily fecal samples were obtained from collections bins located under each pen. Fecal samples used for parasite quantification were dried at 90 °C until stable in weight, and C. parvum abundance per gram of fecal dry matter was measured using qPCR and the primers Cp18s forward and Cp18s reverse.

[1] = 5 mg per kg twice daily oral, days 2–8
[2] = 6.67 mg/kg every 8 h for three days, Calf 1, Day 0
[3] = 6.67 mg/kg every 8 h for three days, Calf 1, Day 1
[4] = 6.67 mg/kg every 8 h for three days, Calf 1, Day 2
[5] = 6.67 mg/kg every 8 h for three days, Calf 1, Day 3
[6] = 6.67 mg/kg every 8 h for three days, Calf 1, Day 4
[7] = 6.67 mg/kg every 8 h for three days, Calf 1, Day 5
[8] = 6.67 mg/kg every 8 h for three days, Calf 1, Day 6
[9] = 6.67 mg/kg every 8 h for three days, Calf 1, Day 7
[10] = 6.67 mg/kg every 8 h for three days, Calf 1, Day 8
[11] = 6.67 mg/kg every 8 h for three days, Calf 1, Day 9
[12] = 6.67 mg/kg every 8 h for three days, Calf 1, Day 10
[13] = 6.67 mg/kg every 8 h for three days, Calf 1, Day 11
[14] = 6.67 mg/kg every 8 h for three days, Calf 1, Day 12
[15] = 6.67 mg/kg every 8 h for three days, Calf 1, Day 13
[16] = 6.67 mg/kg every 8 h for three days, Calf 1, Day 14
[17] = 6.67 mg/kg every 8 h for three days, Calf 2, Day 0
[18] = 6.67 mg/kg every 8 h for three days, Calf 2, Day 1
[19] = 6.67 mg/kg every 8 h for three days, Calf 2, Day 2
[20] = 6.67 mg/kg every 8 h for three days, Calf 2, Day 3
[21] = 6.67 mg/kg every 8 h for three days, Calf 2, Day 4
[22] = 6.67 mg/kg every 8 h for three days, Calf 2, Day 5
[23] = 6.67 mg/kg every 8 h for three days, Calf 2, Day 6
[24] = 6.67 mg/kg every 8 h for three days, Calf 2, Day 7
[25] = 6.67 mg/kg every 8 h for three days, Calf 2, Day 8
[26] = 6.67 mg/kg every 8 h for three days, Calf 2, Day 9
[27] = 6.67 mg/kg every 8 h for three days, Calf 2, Day 10
[28] = 6.67 mg/kg every 8 h for three days, Calf 2, Day 11
[29] = 6.67 mg/kg every 8 h for three days, Calf 2, Day 12
[30] = 6.67 mg/kg every 8 h for three days, Calf 2, Day 13
[31] = 6.67 mg/kg every 8 h for three days, Calf 2, Day 14
[32] = 6.67 mg/kg every 8 h for three days, Calf 3, Day 0
[33] = 6.67 mg/kg every 8 h for three days, Calf 3, Day 1
[34] = 6.67 mg/kg every 8 h for three days, Calf 3, Day 2
[35] = 6.67 mg/kg every 8 h for three days, Calf 3, Day 3
[36] = 6.67 mg/kg every 8 h for three days, Calf 3, Day 4
[37] = 6.67 mg/kg every 8 h for three days, Calf 3, Day 5
[38] = 6.67 mg/kg every 8 h for three days, Calf 3, Day 6
[39] = 6.67 mg/kg every 8 h for three days, Calf 3, Day 7
[40] = 6.67 mg/kg every 8 h for three days, Calf 3, Day 8
[41] = 6.67 mg/kg every 8 h for three days, Calf 3, Day 9
[42] = 6.67 mg/kg every 8 h for three days, Calf 3, Day 10
[43] = 6.67 mg/kg every 8 h for three days, Calf 3, Day 11
[44] = 6.67 mg/kg every 8 h for three days, Calf 3, Day 12
[45] = 6.67 mg/kg every 8 h for three days, Calf 3, Day 13
[46] = 6.67 mg/kg every 8 h for three days, Calf 3, Day 14
[47] = 10 mg per kg twice daily for 7 days begun day 4
[48] = 10 mg/kg every 12 h with delayed start, Calf 1, Day 0
[49] = 10 mg/kg every 12 h with delayed start, Calf 1, Day 1

CC1(C)OB(O)c2cc(NC(=O)c3ccc(-n4cccn4)cc3Cl)ccc21 [AN7973]
effect on diarrhea [1]: completely eliminated diarrhea
effect on parasite shedding [1]: curtailed parasite shedding
AUC for the dehydration scores, individual animals (5 mg/kg BID): 0
AUC for the diarrhea scores, individual animals (5 mg/kg BID): 0
Oocyst Shedding, individual calves (5 mg/kg every 12 h on days 2–8, Day 0): 100
Oocyst Shedding, individual calves (5 mg/kg every 12 h on days 2–8, Day 1): 100 and 583
Oocyst Shedding, individual calves (5 mg/kg every 12 h on days 2–8, Day 2): 4179 and 2794
Oocyst Shedding, individual calves (5 mg/kg every 12 h on days 2–8, Day 3): 46248 and 34331
Oocyst Shedding, individual calves (5 mg/kg every 12 h on days 2–8, Day 4): 68492 and 55772
Oocyst Shedding, individual calves (5 mg/kg every 12 h on days 2–8, Day 6): 265539 and 3628
Oocyst Shedding, individual calves (5 mg/kg every 12 h on days 2–8, Day 7): 39302 and 2599
Oocyst Shedding, individual calves (5 mg/kg every 12 h on days 2–8, Day 8): 43202 and 100
Oocyst Shedding, individual calves (5 mg/kg every 12 h on days 2–8, Day 9): 146 and 100
Oocyst Shedding, individual calves (5 mg/kg every 12 h on days 2–8, Day 10): 611 and 192
effect on diarrhea (6.67 mg per kg three times per day for 3 days): eliminated diarrhea
reduction of the rate of parasite shedding during treatment (6.67 mg per kg three times per day for 3 days, parasitological relapse followed): ~3 log
AUC for the dehydration scores, individual animals (6.67 mg/kg TID (3 days)): 0 and 0.3333
AUC for the diarrhea scores, individual animals (6.67 mg/kg TID (3 days)): 0 and 1.333
Fecal Consistency Score [2]: 1
Oocyst Shedding [2]: 415
Fecal Consistency Score [3]: 1
Oocyst Shedding [3]: 1163
Fecal Consistency Score [4]: 1
Oocyst Shedding [4]: 989897
Fecal Consistency Score [5]: 1
Oocyst Shedding [5]: 285174
Fecal Consistency Score [6]: 1
Oocyst Shedding [6]: 27986
Fecal Consistency Score [7]: 1
Oocyst Shedding [7]: 2214
Fecal Consistency Score [8]: 1
Oocyst Shedding [8]: 10466
Fecal Consistency Score [9]: 1
Oocyst Shedding [9]: 16062
Fecal Consistency Score [10]: 1
Oocyst Shedding [10]: 525550
Fecal Consistency Score [11]: 1
Oocyst Shedding [11]: 522608
Fecal Consistency Score [12]: 1
Oocyst Shedding [12]: 905562
Fecal Consistency Score [13]: 1
Oocyst Shedding [13]: 8303500
Fecal Consistency Score [14]: 1
Oocyst Shedding [14]: 134619
Fecal Consistency Score [15]: 1
Oocyst Shedding [15]: 473515
Fecal Consistency Score [16]: 1
Oocyst Shedding [16]: 35244
Fecal Consistency Score [17]: 2
Oocyst Shedding [17]: 1
Fecal Consistency Score [18]: 2
Oocyst Shedding [18]: 16497
Fecal Consistency Score [19]: 1
Oocyst Shedding [19]: 909
Fecal Consistency Score [20]: 1
Oocyst Shedding [20]: 179330
Fecal Consistency Score [21]: 1
Oocyst Shedding [21]: 38982
Fecal Consistency Score [22]: 1
Oocyst Shedding [22]: 6563
Fecal Consistency Score [23]: 1
Oocyst Shedding [23]: 1
Fecal Consistency Score [24]: 1
Oocyst Shedding [24]: 1
Fecal Consistency Score [25]: 1
Oocyst Shedding [25]: 1
Fecal Consistency Score [26]: 1
Oocyst Shedding [26]: 1
Fecal Consistency Score [27]: 1
Oocyst Shedding [27]: 162
Fecal Consistency Score [28]: 1
Oocyst Shedding [28]: 82
Fecal Consistency Score [29]: 1
Oocyst Shedding [29]: 1213
Fecal Consistency Score [30]: 1
Oocyst Shedding [30]: 387
Fecal Consistency Score [31]: 1
Oocyst Shedding [31]: 188
Fecal Consistency Score [32]: 1
Oocyst Shedding [32]: 1089
Fecal Consistency Score [33]: 1
Oocyst Shedding [33]: 3597
Fecal Consistency Score [34]: 1.33
Oocyst Shedding [34]: 9022387
Fecal Consistency Score [35]: 1.67
Oocyst Shedding [35]: 2560722
Fecal Consistency Score [36]: 1.5
Oocyst Shedding [36]: 582683
Fecal Consistency Score [37]: 1
Oocyst Shedding [37]: 6828
Fecal Consistency Score [38]: 1
Oocyst Shedding [38]: 54223
Fecal Consistency Score [39]: 1
Oocyst Shedding [39]: 8461
Fecal Consistency Score [40]: 1
Oocyst Shedding [40]: 2785
Fecal Consistency Score [41]: 1
Oocyst Shedding [41]: 50511
Fecal Consistency Score [42]: 1
Oocyst Shedding [42]: 198125
Fecal Consistency Score [43]: 1.33
Oocyst Shedding [43]: 100223
Fecal Consistency Score [44]: 1
Oocyst Shedding [44]: 154951
Fecal Consistency Score [45]: 1
Oocyst Shedding [45]: 141133
Fecal Consistency Score [46]: 1.5
Oocyst Shedding [46]: 78359
effect on parasite shedding and diarrhea (10 mg per kg once daily oral, days 2–8, shedding resumed and persisted): reduced peak parasite shedding and diarrhea
parasite shedding [47]: abolished by day 14
reduction of total parasite shedding [47]: greater than 1 log
diarrhea cured faster than in controls (10 mg per kg twice daily for 7 days begun day 4 (peak of symptoms)): 3 days
AUC for the dehydration scores, individual animals (10 mg/kg BID (delayed start)): 0.3333 and 0 and 0.8333
AUC for the diarrhea scores, individual animals (10 mg/kg BID (delayed start)): 1.167 and 2.333 and 2.833
AUC for the dehydration scores, individual animals (10 mg/kg QD): 0.3333 and 0.5
AUC for the diarrhea scores, individual animals (10 mg/kg QD): 2.5 and 1.833 and 2.167
Fecal Consistency Score [48]: 1.67
Oocyst Shedding [48]: 1
Fecal Consistency Score [49]: 2
Oocyst Shedding [49]: 735
